# Experimental data published in patent US9174964B2, “AMPK-activating piperidinyloxy-substituted 2,3-dihydro-1H-indene-1-amine compounds and pharmaceutical compositions including the same” (Rigel Pharmaceuticals, Inc., priority 2007, dated 2015).
# Structures can show the parent of a compound that is named as a salt.
# Target: AMPK
# Assay: AMPK activation, enzyme-linked immunosorbent assay
# Type: biochemical
# Details: Table 2, AMPK activation, ELISA
# Procedure: Compounds 1-50 of Table 1 were assayed for their ability to activate AMPK using an enzyme-linked immunosorbent assay.
# Compounds 51-60 of Table 1 were assayed for their ability to activate AMPK using an enzyme-linked immunosorbent assay.
# Compounds 61-131 of Table 1 were assayed for their ability to activate AMPK using an enzyme-linked immunosorbent assay.
# Compounds 137-141 and 143-155 of Table 1 were assayed for their ability to activate AMPK using an enzyme-linked immunosorbent assay.
# Compounds 156-160 of Table 1 were assayed for their ability to activate AMPK using an enzyme-linked immunosorbent assay.
row,EC50 [nM],SMILES
1,100 to 500,"CC(C)(C)OC(=O)N1CC[C@@H](NC(=O)c2ccc(OC3CCN(c4ccc(C(F)(F)F)cc4)CC3)cn2)C1 [Compound 23, (R)-tert-butyl 3-(5-(1-(4-(trifluoromethyl)phenyl)piperidin-4-yloxy)picolinamido) pyrrolidine-1-carboxylate]"
2,> 10000,"O=C(N[C@H]1CCNC1)c1ccc(OC2CCN(c3ccc(C(F)(F)F)cc3)CC2)cn1 [Compound 27, (S)-N-(pyrrolidin-3-yl)-5-(1-(4-(trifluoromethyl)phenyl)piperidin-4-yloxy)picolinamide]"
3,< 100,"N#Cc1ccc(CN2CC[C@H](NC(=O)c3ccc(OC4CCN(c5ccc(C(F)(F)F)cc5)CC4)cn3)C2)cc1 [Compound 31, (S)-N-(1-(4-cyanobenzyl)pyrrolidin-3-yl)-5-(1-(4-(trifluoromethyl)phenyl)piperidin-4-yloxy)picolinamide]"
4,< 100,"O=C(NC1CCN(Cc2cccnc2)CC1)c1ccc(OC2CCN(c3ccc(C(F)(F)F)cc3)CC2)cn1 [Compound 5, N-(1-(pyridin-3-ylmethyl)piperidin-4-yl)-5-(1-(4-(trifluoromethyl)phenyl)piperidin-4-yloxy)picolinamide]"
5,100 to 500,"O=C(NC1CCN(Cc2ccc(F)cc2)CC1)c1cc(OC2CCN(c3ccc(C(F)(F)F)cc3)CC2)ccn1 [Compound 29, N-(1-(4-fluorobenzyl)piperidin-4-yl)-4-(1-(4-(trifluoromethyl)phenyl)piperidin-4-yloxy)picolinamide]"
6,< 100,"COC(=O)c1ccc(CN2CCC(NC(=O)c3ccc(OC4CCN(c5ccc(C(F)(F)F)cc5)CC4)cn3)CC2)cc1 [Compound 8, methyl 4-((4-(5-(1-(4-(trifluoromethyl)phenyl)piperidin-4-yloxy)picolinamido)piperidin-1-yl)methyl)benzoate]"
7,< 100,"O=C(NC1CCN(Cc2cccnc2)CC1)c1cncc(OC2CCN(c3ccc(C(F)(F)F)cc3)CC2)c1 [Compound 18, N-(1-(pyridin-3-ylmethyl)piperidin-4-yl)-5-(1-(4-(trifluoromethyl)phenyl)piperidin-4-yloxy)nicotinamide]"
8,< 100,"O=C(NC1CCN(Cc2ccncc2)CC1)c1cncc(OC2CCN(c3ccc(C(F)(F)F)cc3)CC2)c1 [Compound 14, N-(1-(pyridin-4-ylmethyl)piperidin-4-yl)-5-(1-(4-(trifluoromethyl)phenyl)piperidin-4-yloxy)nicotinamide]"
9,500 to 1000,"O=C(NC1CCN(Cc2ccc3ccccc3c2)CC1)c1ccc(OC2CCN(c3ccc(C(F)(F)F)cc3)CC2)cn1 [Compound 37, N-(1-(naphthalen-2-ylmethyl)piperidin-4-yl)-5-(1-(4-(trifluoromethyl)phenyl)piperidin-4-yloxy)picolinamide]"

# Same assay, conditions: Table 3, AMPK activation, ELISA
row,EC50 [nM],SMILES
1,1000 to 5000,"CC(C)(C)OC(=O)N1CCC(NS(=O)(=O)c2ccc(OC3CCN(c4ccc(C(F)(F)F)cc4)CC3)nc2)CC1 [Compound 54, tert-butyl 4-(6-(1-(4-(trifluoromethyl)phenyl)piperidin-4-yloxy)pyridine-3-sulfonamido)piperidine-1-carboxylate]"
2,500 to 1000,"N#Cc1cccc(CN2CCC(NS(=O)(=O)c3ccc(OC4CCN(c5ccc(C(F)(F)F)cc5)CC4)nc3)CC2)c1 [Compound 57, N-(1-(3-cyanobenzyl)piperidin-4-yl)-6-(1-(4-(trifluoromethyl)phenyl)piperidin-4-yloxy)pyridine-3-sulfonamide]"

# Same assay, conditions: Table 4, AMPK activation, ELISA
row,EC50 [nM],SMILES
1,1000 to 10000,"O=C(N[C@@H]1CCN(Cc2ccccn2)C1)c1cc2cc(OC3CCN(c4ccc(C(F)(F)F)cc4)CC3)ccc2o1 [Compound 124, (R)-N-(1-(pyridin-2-ylmethyl)pyrrolidin-3-yl)-5-(1-(4-(trifluoromethyl)phenyl)piperidin-4-yloxy)benzofuran-2-carboxamide]"
2,< 100,"CN(C(=O)c1cc2cc(OC3CCN(c4ccc(C(F)(F)F)cc4)CC3)ccc2o1)C1CCN(Cc2ccc(C(F)(F)F)cc2)CC1 [Compound 119, N-methyl-N-(1-(4-(trifluoromethyl)benzyl)piperidin-4-yl)-5-(1-(4-(trifluoromethyl)phenyl)piperidin-4-yloxy)benzofuran-2-carboxamide]"
3,< 100,"CN(C(=O)c1cc2cc(OC3CCN(c4ccc(C(F)(F)F)cc4)CC3)ccc2o1)C1CCN(Cc2ccc(C#N)cc2)CC1 [Compound 107, N-(1-(4-cyanobenzyl)piperidin-4-yl)-N-methyl-5-(1-(4-(trifluoromethyl)phenyl)piperidin-4-yloxy)benzofuran-2-carboxamide]"
4,< 100,"O=C(NC1CCN(Cc2ccc(C(F)(F)F)cc2)CC1)c1cc2cc(OC3CCN(c4ccc(C(F)(F)F)cc4)CC3)ccc2o1 [Compound 100, N-(1-(4-(trifluoromethyl)benzyl)piperidin-4-yl)-5-(1-(4-(trifluoromethyl)phenyl)piperidin-4-yloxy)benzofuran-2-carboxamide]"
5,100 to 500,"O=C(N[C@@H]1CCN(Cc2cccnc2)C1)c1cc2cc(OC3CCN(c4ccc(C(F)(F)F)cc4)CC3)ccc2o1 [Compound 123, (R)-N-(1-(pyridin-3-ylmethyl)pyrrolidin-3-yl)-5-(1-(4-(trifluoromethyl)phenyl)piperidin-4-yloxy)benzofuran-2-carboxamide]"
6,< 100,"O=C(NC1CCN(Cc2ccncc2)CC1)c1cc2ccc(OC3CCN(c4ccc(C(F)(F)F)cc4)CC3)cc2o1 [Compound 87, N-(1-(pyridin-4-ylmethyl)piperidin-4-yl)-6-(1-(4-(trifluoromethyl)phenyl)piperidin-4-yloxy)benzofuran-2-carboxamide]"
7,< 100,"O=C(NC1CCN(Cc2cccnc2)CC1)c1cc2ccc(OC3CCN(c4ccc(OC(F)(F)F)cc4)CC3)cc2o1 [Compound 95, N-(1-(pyridin-3-ylmethyl)piperidin-4-yl)-6-(1-(4-(trifluoromethoxy)phenyl)piperidin-4-yloxy)benzofuran-2-carboxamide]"
8,1000 to 10000,"CN(C(=O)c1cc2cc(OC3CCN(c4ccc(C(F)(F)F)cc4)CC3)ccc2o1)C1CCNCC1 [Compound 103, N-methyl-N-(piperidin-4-yl)-5-(1-(4-(trifluoromethyl)phenyl)piperidin-4-yloxy)benzofuran-2-carboxamide]"
9,100 to 500,"CN(C(=O)c1cc2cc(OC3CCN(c4ccc(C(F)(F)F)cc4)CC3)ccc2o1)C1CCN(C(=O)c2ccncc2)CC1 [Compound 118, N-(1-isonicotinoylpiperidin-4-yl)-N-methyl-5-(1-(4-(trifluoromethyl)phenyl)piperidin-4-yloxy)benzofuran-2-carboxamide]"
10,< 100,"O=C(NC1CCN(C(=O)c2ccncc2)CC1)c1cc2cc(OC3CCN(c4ccc(C(F)(F)F)cc4)CC3)ccc2o1 [Compound 115, N-(1-isonicotinoylpiperidin-4-yl)-5-(1-(4-(trifluoromethyl)phenyl)piperidin-4-yloxy)benzofuran-2-carboxamide]"
11,< 100,"O=C(NC1CCN(Cc2cccnc2)CC1)c1cc2ccc(OC3CCN(c4ccc(C(F)(F)F)cc4)CC3)cc2o1 [Compound 96, N-(1-(pyridin-3-ylmethyl)piperidin-4-yl)-6-(1-(4-(trifluoromethyl)phenyl)piperidin-4-yloxy)benzofuran-2-carboxamide]"
12,100 to 500,"CC(C)(C)OC(=O)N1CCC(NC(=O)c2cc3cc(OC4CCN(Cc5ccc(C#N)cc5)CC4)ccc3o2)CC1 [Compound 113, tert-butyl 4-(5-(1-(4-cyanobenzyl)piperidin-4-yloxy)benzofuran-2-carboxamido)piperidine-1-carboxylate]"

# Second part, the compound before the results:
row,SMILES,EC50 [nM]
1,"Cc1c(C(=O)NC2CCN(Cc3ccccc3C#N)CC2)oc2cc(OC3CCN(c4ccc(C(F)(F)F)cc4)CC3)ccc12 [Compound 67, N-(1-(2-cyanobenzyl)piperidin-4-yl)-3-methyl-6-(1-(4-(trifluoromethyl)phenyl)piperidin-4-yloxy)benzofuran-2-carboxamide]",< 100
2,"O=C(NC1CCN(Cc2ccccc2)CC1)c1cc2cc(OC3CCN(c4ccc(C(F)(F)F)cc4)CC3)ccc2o1 [Compound 75, N-(1-benzylpiperidin-4-yl)-5-(1-(4-(trifluoromethyl)phenyl)piperidin-4-yloxy)benzofuran-2-carboxamide]",< 100
3,"CC(C)(C)OC(=O)N1CCC(NC(=O)c2cc3ccc(OC4CCN(c5ccc(OC(F)(F)F)cc5)CC4)cc3o2)CC1 [Compound 81, tert-butyl 4-(6-(1-(4-(trifluoromethoxy)phenyl)piperidin-4-yloxy)benzofuran-2-carboxamido)piperidine-1-carboxylate]",100 to 500
4,"O=C(NC1CCN(Cc2ccncc2)CC1)c1cc2cc(OC3CCN(c4ccc(C(F)(F)F)cc4)CC3)ccc2o1 [Compound 76, N-(1-(pyridin-4-ylmethyl)piperidin-4-yl)-5-(1-(4-(trifluoromethyl)phenyl)piperidin-4-yloxy)benzofuran-2-carboxamide]",100 to 500
5,"O=C(NC1CCN(Cc2ccncc2)CC1)c1cc2cc(OC3CCN(c4ccc(OC(F)(F)F)cc4)CC3)ccc2o1 [Compound 78, N-(1-(pyridin-4-ylmethyl)piperidin-4-yl)-5-(1-(4-(trifluoromethoxy)phenyl)piperidin-4-yloxy)benzofuran-2-carboxamide trifluoroacetate salt]",< 100

# Same assay, conditions: Table 5, AMPK activation, ELISA
row,EC50 [nM],SMILES
1,< 100,"O=C(NC1CCN(Cc2ccncc2)CC1)c1cc2cc(OC3CCN(c4ccc(OC(F)(F)F)cc4)CC3)ccc2s1 [Compound 137, N-(1-(pyridin-4-ylmethyl)piperidin-4-yl)-5-(1-(4-(trifluoromethoxy)phenyl)piperidin-4-yloxy)benzo[b]thiophene-2-carboxamide]"
2,100 to 500,"O=C(NC1CCNCC1)c1cc2ccc(OC3CCN(c4ccc(C(F)(F)F)cc4)CC3)cc2s1 [Compound 141, N-(piperidin-4-yl)-6-(1-(4-(trifluoromethyl)phenyl)piperidin-4-yloxy)benzo[b]thiophene-2-carboxamide]"
